The test system of this assay is DUOX. In words: In vivo ROS detection in gut epithelia (HOCl-specific R19S staining, ratio of ROS-positive guts). Details: species or system Drosophila. The text has this: R19S, a recently developed HOCl-specific rhodamine-based dye, was used in this experiment (Chen et al., Chem Commun (Camb) 47, pp. 4373-4375, 2011). R19S was purchased from Futurechem (Seoul, South Korea). […]
Furthermore, to measure the basal level of ROS in germ-free animals, Drosophila monoassociated with each bacterium (C. intestini, A. pomorum, L. plantarum, G. morbifer, G. morbifer-carA::Tn5, L. brevis, or L. brevisΔcarA) were experimented with as disclosed above. A 5% sucrose solution containing 10 μM of R19S was orally administered to the monoassociated Drosophila (13 days old) for 90 minutes.
Following the R19S ingestion, the midguts were dissected and fixed with 4% formaldehyde. The level of HOCl (ROS level) was visualized by LSM700 confocal microscopy (Carl Zeiss).
For all of the experiments, R19S-positive guts in each animal group (n=approx. 20) were measured by each independent experiment, and data was indicated by at least three repeated and independent experiments. The number of R19S-positive guts in regard to the total numbers of gut samples was indicated as the ratio of ROS-positive guts.

Turning to `O=c1[nH]cc(F)c(=O)[nH]1` [5-fluorouracil, reference compound], under “nucleobases and pyrimidine analogs, 20 nM each, ingestion for 15 minutes”, the “ROS-inducing ability / DUOX activation” value is recorded as “only uracil is capable of activating DUOX”.
`CC(=O)N[C@@H](CS)C(=O)O` [N-acetylcysteine, reference compound]: for the setting “uracil 20 nM, 1.5 hours, plus N-acetylcysteine”, the “DUOX-dependent ROS after coingestion of uracil with N-acetylcysteine” value was “could not be detected”.

The record behind these values is patent US10092566B2, “Composition for controlling a gut immunity and use thereof” (SEOUL NATIONAL UNIVERSITY R&DB FOUNDATION, priority 2013, dated 2018).
